# Patent US5573926A, “Process for obtaining aroma components and aromas from their precursors of a glycosidic nature, and aroma components and aromas thereby obtained” (Gist-brocades, N.V., priority 1989, dated 1996)
# Key:
# [1] = test system: β-glucosidase (originating from Aspergillus niger); assay: Inhibition of β-glucosidase activity by glucose in must and sweet wine; format: biochemical
# [2] = test system: β-glucosidase; assay: Enzymatic hydrolysis of synthetic substrates by β-glucosidase (TLC, pNP liberated, GC); format: biochemical, sweet almond; settings: media previously incubated with α-arabinosidase or α-rhamnosidase; 0.15 nkat, 40° C., 90 min
# Experimental: An ethyl acetate/isopropanol/water (65:30:10 v/v/v) mixture was used as a migration solvent. The sugars and the glycosides are visualized by means of the following mixture, prepared immediately before use: 0.2% naphthoresorcinol in ethanol/concentrated sulphuric acid (19:1 v/v). The application of this visualizing agent is followed by drying the plates in the oven (105° C.) for 15 minutes. Apart from their migration distance, the various compounds are also distinguished by their colour. The glycosides are purple-red, the arabinosides are bluish, the apiosides are green, rhamnose greenish pink, arabinose blue, apiose green and glucose pink. […] The hydrolysis and analysis protocols are given in plan form (Table 2). […]
# [3] = test system: β-glucosidase; assay: Second stage: consecutive action of β-glucosidase on the pre-incubated glycosidic extract (GC); format: biochemical, sweet almond; settings: 0.15 nkat, 40°, 16 h
# Experimental: (§1) 40 μl of glycosidic extract and 60 μl of a solution of Glc-pNP (internal standard) at a concentration of 50 mg/1 in ethyl acetate are introduced into a suitable flask. The mixture is taken to dryness at 40° C. with a stream of nitrogen. 40 μl of the silylating reagent (Tri-sil, Pierce, Rockford, Ill., U.S.A.) are then introduced; the flask is sealed and maintained at 40° C. for 20 minutes. After rapid cooling, the silylated sample is then ready for analysis by GC.
# (§2) The apparatus used consists of a Series 30C gas chromatograph, an "on-column" injector (injected volume 0.5 μl) and a flame ionization detector (Girdel, France). A thin film (0.20 μm) of an OV-1 (Girdel) apolar silicone phase is grafted onto the inner wall of the capillary column ([…].). The oven temperature is programmed from 125 to 305° C. at the rate of 5° C./minute, then maintained at 305° C. for 15 minutes. Finally, the detector temperature is set at 300° C. and hydrogen is used as the carrier gas at a pressure of 120 kPa.
# (§3) The experimental protocols for the enzymatic hydrolysis on the glycosidic extract are collated in Table 3. […]
# [4] = test system: α-arabinosidase; assay: Enzymatic hydrolysis of the muscat glycosidic extract by α-arabinosidase (GC); format: biochemical; settings: for Terpene monoglucosides liberated by α-arabinosidase from a glycosidic extract / GC peak of the glycosidic extract after incubation with α-arabinosidase: 0.15 nkat, 40° C., 16 h; for % of monoglucosides (liberated by the two enzymes together): sum of α-arabinosidase and α-rhamnosidase; for Compounds appearing after action of α-arabinosidase: HPLC-collected peak, appears together with arabinose
# Experimental: as §1, §2, §3
# [5] = test system: α-rhamnosidase; assay: Enzymatic hydrolysis of the muscat glycosidic extract by α-rhamnosidase (GC); format: biochemical; settings: 0.15 nkat, 40° C., 16 h
# Experimental: as §1, §2, §3
# [6] = target: T1, β-glucosidase (originating from the yeast Candida wickerhamii CBS 2928) (Nakazawaea wickerhamii, UniProt Q12601); assay: Hydrolysis of monoglucosides in naturally sweet wines by Candida wickerhamii β-glucosidase; format: biochemical
# T1 sequence (Q12601 20-609): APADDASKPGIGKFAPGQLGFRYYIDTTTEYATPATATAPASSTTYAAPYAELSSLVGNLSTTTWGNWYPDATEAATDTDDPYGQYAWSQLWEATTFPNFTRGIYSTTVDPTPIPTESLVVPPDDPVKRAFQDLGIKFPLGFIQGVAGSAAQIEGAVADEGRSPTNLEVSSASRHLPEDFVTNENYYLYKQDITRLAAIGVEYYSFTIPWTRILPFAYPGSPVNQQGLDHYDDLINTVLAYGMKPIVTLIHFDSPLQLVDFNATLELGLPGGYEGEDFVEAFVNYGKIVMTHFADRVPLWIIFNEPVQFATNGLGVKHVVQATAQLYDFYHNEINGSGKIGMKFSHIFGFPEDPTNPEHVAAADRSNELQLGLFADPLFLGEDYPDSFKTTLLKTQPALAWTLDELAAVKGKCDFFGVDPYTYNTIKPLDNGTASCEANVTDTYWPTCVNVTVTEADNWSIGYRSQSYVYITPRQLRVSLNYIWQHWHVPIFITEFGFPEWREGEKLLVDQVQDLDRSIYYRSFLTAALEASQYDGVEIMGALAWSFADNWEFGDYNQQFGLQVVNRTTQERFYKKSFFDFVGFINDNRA
# [7] = test system: α-arabinosidase and then β-glucosidase; assay: Sequential hydrolysis by α-arabinosidase and then β-glucosidase (GC of sugars, glucosides, terpenols); format: biochemical; settings: HPLC-collected peak; appears together with glucose
# Experimental: The monoterpene alcohols studied here are sufficiently volatile to be chromatographed as they are. To the pentane extract containing them, the internal standard, 4-nonanol (for synthesis, Merck, Darmstadt, FRG) is added in the proportion of 1 μl of a solution at a concentration of 2.89 mg/ml in pentane per 50 μl of medium. The mixture is then dried over sodium sulphate, filtered through glass wool and then concentrated to a volume in the region of 100 μl For this purpose, the pentane is first removed using a conventional still, and then a Dufton type column of a size suited to the volume remaining to be concentrated.
# The constituents of the concentrated extract are separated using a capillary column (25 m×0.32 mm I.D.) containing a CP wax 52 CB (Chrompack, Middelburg, Netherlands) polar phase. The grafted polyethylene glycol film was selected thick (1.28 μm) in order to permit the injection of large sample volumes, up to 4 μl. […]
# Furthermore, each fraction was subjected to the sequential action of α-arabinosidase and then β-glucosidase. At the end of each stage and according to the procedures described, the incubated medium was analysed by GC in order to test for sugars and glucosides on the one hand, and for terpenols on the other hand. […]
# [8] = test system: β-apiosidase; assay: Enzymatic hydrolysis of Api-Glc-Ger by β-apiosidase present in Klerzyme 200 (TLC); format: biochemical
# Experimental: The β-apiosidase present in a commercial enzyme preparation (Klerzyme 200, Gist-brocades, France) was used without further purification.
# (§4) Thin-layer adsorption chromatography was carried out on pieces of aluminium foil covered with a thin layer (0.2 mm) of silica gel (5553 Silica gel 60 without a fluorescence indicator, Merck). An ethyl acetate/isopropanol/water (65:30:10 v/v/v) mixture was used as a migration solvent.
# (§5) The sugars and the glycosides are visualized by means of the following mixture, prepared immediately before use: 0.2% naphthoresorcinol in ethanol/concentrated sulphuric acid (19:1 v/v). The application of this visualizing agent is followed by drying the plates in the oven (105° C.) for 15 minutes. Apart from their migration distance, the various compounds are also distinguished by their colour. The glycosides are purple-red, the arabinosides are bluish, the apiosides are green, rhamnose greenish pink, arabinose blue, apiose green and glucose pink.
# (§6) In all the tests relating to the enzymatic hydrolysis of the synthetic substrates, the same glycosidase activity (0.15 nkat) is used for each of the enzymes (α-arabinosidase, apiosidase, α-rhamnosidase, β-glucosidase).
# [9] = test system: α-rhamnosidase; assay: Enzymatic hydrolysis of synthetic substrates by α-rhamnosidase (TLC); format: biochemical; settings: 0.15 nkat, 40° C., 90 min, pH 4.2
# Experimental: as §4, §5, §6
# (§7) The hydrolysis and analysis protocols are given in plan form (Table 2). […]
# [10] = Enzymatic hydrolysis of a glycosidic extract in natural media (must, dry wine) by Hemicellulase REG2 + Naringinase; format: biochemical; settings: 25° C., 86 hours
# Experimental: The enzymatic hydrolysis of a glycosidic extract incorporated, on the one hand into a natural medium (must or dry wine), and on the other hand into a reference medium (buffer), by the action of commercial preparations containing the requisite three glycosidases, was studied.
# A juice and a wine of a vine variety not containing terpenols and terpene glycosides, but enriched beforehand with a known amount of glycosidic extract of muscat, are treated with commercial enzyme preparations. The media, as well as controls, are incubated at 25° C. for 86 hours (see the experimental protocol plan below). They are then passed through a column of Amberlite XAD-2 according to the protocol applied for the production of the glycosidic extract, and the terpenols are assayed by GC.
# [11] = test system: α-arabinosidase; assay: Enzymatic hydrolysis of synthetic substrates by α-arabinosidase (TLC); format: biochemical; settings: 0.15 nkat, 40° C., 90 min, pH 4.2
# Experimental: as §4, §5, §6, §7
smiles,measurement,setting,value
OC[C@H]1OC(O)[C@H](O)[C@@H](O)[C@@H]1O (stereo partly shown) [glucose],effect on β-glucosidase activity,[1]; glucose 30 g/l in naturally sweet wines,inhibiting β-glucosidase
same,effect on β-glucosidase activity,[1]; glucose present in large amounts in the must,inhibition of the β-glucosidase activity
"O=[N+]([O-])c1ccc(O[C@@H]2O[C@H](CO)[C@@H](O)[C@H](O)[C@H]2O)cc1 [Glc-pNP, p-nitrophenyl β-D-glucopyranoside, reference compound]","consecutive action of β-glucosidase (second stage, TLC)",[2],disappearance of Glc-Ger and Glc-pNP and the appearance of glucose
"CC(C)=CCC/C(C)=C/CO[C@@H]1O[C@H](CO)[C@@H](O)[C@H](O)[C@H]1O [Glc-Ger, geranyl β-D-glucopyranoside]","consecutive action of β-glucosidase (second stage, TLC)",[2],disappearance of Glc-Ger and Glc-pNP and the appearance of glucose
same,"hydrolysis by consecutive action of β-glucosidase (second stage, GC)",[3],disappearance
same,Terpene monoglucosides liberated by α-arabinosidase from a glycosidic extract,[4],39%
same,% of monoglucosides (liberated by the two enzymes together),[4],48%
same,Terpene monoglucosides liberated by α-rhamnosidase from a glycosidic extract,[5],9%
same,hydrolyzed by Candida wickerhamii β-glucosidase,[6]; pH 3.6,45%
same,hydrolyzed by Candida wickerhamii β-glucosidase,[6]; pH 4.0,two thirds
"CC(C)=CCC/C(C)=C/CO[C@@H]1O[C@H](CO[C@@H]2O[C@@H](CO)[C@H](O)[C@H]2O)[C@@H](O)[C@H](O)[C@H]1O (single isomer, unassigned) [Ara-Glc-Ger, Geranyl 6-O-(α-L-arabinofuranosyl)-β-D-glucopyranoside]",GC peak of the glycosidic extract after incubation with α-arabinosidase,[4],disappear completely
same,Compounds appearing after action of α-arabinosidase,[4],Glc--Ger
same,Compounds appearing after action of α-arabinosidase and then β-glucosidase,[7],geraniol
"CC(C)=CCC/C(C)=C/CO[C@@H]1O[C@H](CO[C@@H]2OC[C@](O)(CO)[C@H]2O)[C@@H](O)[C@H](O)[C@H]1O [Api-Glc-Ger, geranyl β-D-apiofuranosyl-(1→6)-β-D-glucopyranoside]",hydrolysis by β-apiosidase present in Klerzyme 200 (TLC),[8],disappearance of the substrate and the appearance of apiose and glucose
"CC(C)=CCC/C(C)=C/CO[C@@H]1O[C@H](CO[C@@H]2O[C@@H](C)[C@H](O)[C@@H](O)[C@H]2O)[C@@H](O)[C@H](O)[C@H]1O [Rha-Glc-Ger, Geranyl 6-O-(α-L-rhamnopyranosyl)-β-D-glucopyranoside]",GC peak of the glycosidic extract after the action of α-rhamnosidase,[5],decreases
same,hydrolysis by α-rhamnosidase (TLC),[9],disappearance of these substrates
"CC(C)=CCC/C(C)=C\CO[C@@H]1O[C@H](CO)[C@@H](O)[C@H](O)[C@H]1O [Glc-Ner, neryl β-D-glucopyranoside]","hydrolysis by consecutive action of β-glucosidase (second stage, GC)",[3],disappearance
same,Terpene monoglucosides liberated by α-arabinosidase from a glycosidic extract,[4],28%
same,% of monoglucosides (liberated by the two enzymes together),[4],33%
same,Terpene monoglucosides liberated by α-rhamnosidase from a glycosidic extract,[5],5%
same,hydrolyzed by Candida wickerhamii β-glucosidase,[6]; pH 3.6,19%
same,hydrolyzed by Candida wickerhamii β-glucosidase,[6]; pH 4.0,two thirds
OCc1ccccc1 [Benzyl alcohol],Compounds liberated relative to the reference medium,"[10]; MUST (pH 3.4, sugars 180 g/l)",46%
same,Compounds liberated relative to the reference medium,"[10]; WINE (dry white, pH 3.1)",50%
"O=[N+]([O-])c1ccc(O[C@@H]2O[C@H](CO[C@@H]3O[C@@H](CO)[C@H](O)[C@H]3O)[C@@H](O)[C@H](O)[C@H]2O)cc1 [Ara-Glc-pNP, p-Nitrophenyl 6-O-(α-L-arabinofuranosyl)-β-D-glucopyranoside]",hydrolysis by α-arabinosidase (TLC),[11],disappearance of this substrate and the appearance of arabinose and Glc-pNP
C[C@@H]1O[C@@H](OC[C@H]2O[C@@H](Oc3ccc([N+](=O)[O-])cc3)[C@H](O)[C@@H](O)[C@@H]2O)[C@H](O)[C@H](O)[C@H]1O [Rha-Glc-pNP],hydrolysis by α-rhamnosidase (TLC),[9],disappearance of these substrates
"CC(C)=CCC/C(C)=C\CO[C@@H]1O[C@H](CO[C@@H]2O[C@@H](CO)[C@H](O)[C@H]2O)[C@@H](O)[C@H](O)[C@H]1O [Ara-Glc-Ner, neryl a-L-arabinofuranosyl-(1→6)-β-D-glucopyranoside]",GC peak of the glycosidic extract after incubation with α-arabinosidase,[4],disappear completely
same,Compounds appearing after action of α-arabinosidase,[4],Glc--Ner
same,Compounds appearing after action of α-arabinosidase and then β-glucosidase,[7],nerol
C=CC(C)(O)CCC=C(C)C (stereo not shown) [Linalol],Compounds liberated relative to the reference medium,"[10]; MUST (pH 3.4, sugars 180 g/l)",9%
same,Compounds liberated relative to the reference medium,"[10]; WINE (dry white, pH 3.1)",14%
